Reference: patent US7718768B2, “Biologically active peptide [sequence]” (CMS Peptides Patent Holding Company Limited, priority 2001, dated 2010)
Marks after values point to notes of the source that are not given here. No end group written: not given here.

B1: IFN-γ: recombinant mouse interferon-γ, Beijing Biotech Inc.; positive control immunostimulant (protein, UniProt P01580 23-155, looked up)
Interferon gamma: HGTVIESLESLNNYFNSSGIDVEEKSLFLDIWRNWQKDGDMKILQSQIISFYLRLFEVLKDNQAISNNISVIESHLITTFFSNSKAKKDAFMSIAKFEVNNPQVQRQAFNELIRVVHQLLPESSLRKRKRSRC

Assays:
Format in all cases: in vivo, BALB/c mice
anti-SRBC antibody = experiment: Sheep Red Blood Cell (SRBC) hemolysis test, anti-SRBC antibody formation; details: SRBC on day 12, IFN-γ and IL-2 groups 3×10^5 IU/kg/day, X ± SD
How it was run: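 Hemolytic antibody read-out: day-16 mouse serum (1:500) incubated 10 min at 37 °C with 2% SRBC and Cavy-serum complement, supernatant treated with Drabkin solution, OD540nm measured. Animals were SRBC-immunized i.p. (0.2 ml) on day 12 during dosing.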

[1] = immunity organ weight test (thymus gland index, spleen index); details: X ± SD
How it was run: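 Organs (thymus, spleen, liver) were weighed one day after the last of 15 daily i.p. doses given in saline. Indices are expressed as percentage of body weight, with α derived from body weight relative to combined liver and spleen weight.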

NK cell = NK cell cytotoxicity activity test (YAC-1 target cells, MTT) on spleen cells of treated mice; details: IFN-γ and IL-2 groups 3×10^5 IU/kg/day, X ± SD
Procedure: The above substances were all dissolved in 0.5 ml saline and injected intraperitoneal (i.p.) for 15 continuous days, once per day.
Ten mice per group. The day after the last test substance administration, the mice were sacrificed by cervical dislocation. The spleen was isolated aseptically and manually dispersed in cold D-Hank's solution using an injection needle. The dispersed cell suspension was further sieved through a 100 gauge 150 μm diameter stainless steel sieve. After centrifugation at 200 g for 10 minutes, the supernatant was discarded. The cell pellet was re-suspended in 10 volume of Tris-NH4Cl buffer and then kept standing still for 10 minutes at room temperature. The suspended cells were collected by centrifugation at 150 g for 10 minutes. The cells were washed 2-4 times with cold D-Hank's solution by re-suspending and collecting by centrifugation with condition as described above. The washed cells were then diluted to the desired cell densities by RPMI-1640 culture medium, containing 10% fetal bovine serum.
Mice spleen cells were prepared to 4×10^6/ml as described in section 1.1 above. Target cells YAC-1 were brought to log phase and adjusted to 1×10^5/ml. Using a 96 wells cell culture plate, 100 μl mouse spleen cells and 100 μl culture medium were added to the control well containing only the spleen cells; 100 μl target cells and 100 μl culture medium were added to the control well containing only target cells; 100 μl mouse spleen cells and 100 μl target cells were added to the NK activity assay well. Three parallel sets of the above were prepared per mouse.
Samples were centrifuged at 150 g for 10 minutes to collect the cells. The supernatant was discarded and 50 μl/well MTT of 1 mg/ml was added. The reaction mixture was then shaken for 2 minutes, and incubated at 37° C., 5% CO2 for 4 hours. The supernatant was discarded after centrifugation at 150 g for 10 minutes. 120 μl 40 mM HCl-2-propanol was added and shaken for 3 minutes. An ELISA reader was used to obtain OD570nm of each well referenced at 630 nm.

[2] = peptide 0.5 μg/kg/day i.p. 15 days
[3] = peptide 5 μg/kg/day i.p. 15 days
[4] = peptide 50 μg/kg/day i.p. 15 days
[5] = peptide 500 μg/kg/day i.p. 15 days
[6] = peptide 5 μg/kg/day i.p. 15 days, IFN-γ and IL-2 groups 3×10^5 IU/kg/day
[7] = peptide 50 μg/kg/day i.p. 15 days, IFN-γ and IL-2 groups 3×10^5 IU/kg/day
[8] = peptide 500 μg/kg/day i.p. 15 days, IFN-γ and IL-2 groups 3×10^5 IU/kg/day
[9] = peptide 0.5 μg/kg/day i.p. 15 days, IFN-γ and IL-2 groups 3×10^5 IU/kg/day

Molecule | anti-SRBC antibody formation (sample serum index) (anti-SRBC antibody; [2]) | anti-SRBC antibody formation (sample serum index) (anti-SRBC antibody; [3]) | anti-SRBC antibody formation (sample serum index) (anti-SRBC antibody; [4]) | anti-SRBC antibody formation (sample serum index) (anti-SRBC antibody; [5]) | weight of spleen (spleen index) [1, 5] | NK cell cytotoxic activity (NK cell activity index) (NK cell; [4]) | weight of thymus gland (thymus gland index) [1, 6] | weight of thymus gland (thymus gland index) [1, 7] | weight of thymus gland (thymus gland index) [1, 8] | NK cell cytotoxic activity (NK cell activity index) (NK cell; [5]) | weight of thymus gland (thymus gland index) [1, 9] | weight of spleen (spleen index) [1, 7] | NK cell cytotoxic activity (NK cell activity index) (NK cell; [2]) | NK cell cytotoxic activity (NK cell activity index) (NK cell; [3]) | weight of spleen (spleen index) [1, 3] | weight of spleen (spleen index) [1, 9]
FNFVPP [CMS003] | 2 ± 1* Unit | 91 ± 24*^@ Unit | 52 ± 11* Unit | 96 ± 18*^@ Unit | 0.40 ± 0.04 % | 85 ± 6 % | – | – | – | – | – | – | – | – | – | –
IGMESAGIHETTY [CMS016] | – | 93 ± 32*^@ Unit | – | 143 ± 38*^@^ Unit | – | – | 0.22 ± 0.06 % | 0.20 ± 0.03*^@^ % | 0.18 ± 0.05 % | 91 ± 7*^@^ % | – | – | – | – | – | –
KAVGHLDDLPGAL [CMS008] | – | 97 ± 26*^@ Unit | – | 82 ± 15*^@ Unit | – | – | – | 0.20 ± 0.04*^@^ % | 0.21 ± 0.03*^@^ % | – | 0.22 ± 0.07*^ % | 0.39 ± 0.08 % | 46 ± 12 % | 92 ± 4*^@^ % | – | –
LRVAPEEHPTL [CMS009] | 2 ± 1* Unit | 79 ± 18*^@ Unit | 13 ± 5* Unit | 113 ± 22*^@^ Unit | 0.41 ± 0.03 % | – | – | – | – | – | – | – | – | 92 ± 6*^@^ % | – | –
PSIVGRPRHQGVM [CMS015] | 13 ± 4* Unit | 94 ± 37*^@ Unit | 54 ± 9*^@ Unit | 136 ± 22*^@^ Unit | 0.36 ± 0.07 % | 78 ± 8 % | 0.20 ± 0.08 % | – | – | – | – | – | – | – | 0.38 ± 0.15 % | –
PTTKTYFPHF [CMS001] | – | 110 ± 24*^@ Unit | – | – | 0.43 ± 0.07 % | 85 ± 10 % | 0.22 ± 0.05 % | – | – | – | – | – | – | – | – | 0.40 ± 0.05 %
Phe Glu Glu Glu (FEEE; listed as Sus scrofa) [CMS032] | – | 157 ± 37*^@^ Unit | 131 ± 24*^@^ Unit | – | – | – | 0.29 ± 0.04*^@^ % | 0.27 ± 0.03*^@^ % | 0.25 ± 0.03*^@^ % | 87 ± 5 % | 0.21 ± 0.06 % | – | – | – | – | –
Phe Val Asn Asp (FVND; listed as Sus scrofa) [CMS035] | – | 176 ± 39*^@^ Unit | 97 ± 10*^@^ Unit | 88 ± 16*^@ Unit | – | 72 ± 9 % | 0.21 ± 0.04 % | – | – | 90 ± 10 % | – | – | 76 ± 10 % | – | – | –
Pro Glu Asn Phe (PENF; listed as Sus scrofa) [CMS034] | 20 ± 2* Unit | 172 ± 37*^@^ Unit | 136 ± 11*^@^ Unit | – | – | – | 0.27 ± 0.06*^@^ % | 0.19 ± 0.04*^ % | 0.20 ± 0.05*^ % | – | – | – | – | 90 ± 5 % | – | –
RVAPEEHPTL [CMS011] | 5 ± 3* Unit | 115 ± 27*^@^ Unit | 67 ± 9*^@ Unit | 188 ± 16*^@^ Unit | 0.41 ± 0.04 % | – | 0.22 ± 0.04 % | – | – | – | – | – | 79 ± 3 % | 76 ± 10 % | – | –
Tyr Ser Leu (YSL; listed as Sus scrofa) [CMS024] | 98 ± 6*^@^ Unit | 171 ± 39*^@^ Unit | – | 75 ± 29*^@ Unit | 0.34 ± 0.05 % | – | 0.23 ± 0.06*^ % | 0.27 ± 0.02*^@^ % | – | 89 ± 8 % | – | – | – | 78 ± 3 % | – | –
VAPEEHPTLLTEAPLNPK [CMS010] | 10 ± 3* Unit | – | – | 112 ± 30*^@^ Unit | – | – | 0.27 ± 0.05*^@^ % | – | 0.19 ± 0.04 % | 91 ± 4*^@^ % | 0.21 ± 0.03 % | 0.38 ± 0.05 % | – | 82 ± 9 % | – | –
VGMGQKDSY [CMS019] | 12 ± 3* Unit | 118 ± 20*^@^ Unit | – | 91 ± 26*^@ Unit | 0.63 ± 0.08 % | – | 0.24 ± 0.02*^@^ % | 0.20 ± 0.03*^@^ % | 0.19 ± 0.02 % | – | – | – | – | – | – | –
B1 | 37 ± 10 Unit | 37 ± 10 Unit | 37 ± 10 Unit | 37 ± 10 Unit | – | 73 ± 10 % | 0.15 ± 0.04% | 0.15 ± 0.04% | 0.15 ± 0.04% | 77 ± 8 % | 0.15 ± 0.04% | 0.50 ± 0.04% | 72 ± 9 % | 80 ± 8 % | – | 0.50 ± 0.04%
